Experimental data: US20250296938A1, “Compounds that Interact with the Ras Superfamily for the Treatment of Cancers, Inflammatory Diseases, Rasopathies, and Fibrotic Disease” (SHY Therapeutics, LLC, priority 2018, published 2025)
Where two headings read alike, the source gives them in different places.

Assays:
Experiment in all cases: Ras GTP binding domain inhibition assay (Cy3-GTP/Cy5-GTP competition)
[1] = test system: KRas G12C mutant; design: species or system human; details: 20 μM; for KRas G12C mutant + SOS: % inh.: with SOS; for KRas G12C mutant: % inh.: without SOS
Method: (§1) The following method was developed as specific assay for the following proteins: KRas wild type, KRas Q61H mutant, KRas G12C mutant, KRas G12D mutant, HRas wild type, Rac-1, and Rho-A.
(§2) • 25 mM Tris-HCl, pH 7.4 • 27 mM KCl • 137 mM NaCl • 1 mM MgCl2 • 1 mM DTT
(§3) • 50 mM Tris-HCl, pH 7.0 • 1 mM MgCl2 • 1 mM DTT
(§4) The small GTPases proteins: KRas wild type. KRas Q61H mutant, KRas G12C mutant, KRas G12D mutants, HRas wild type, Rac-1, and Rho-A were expressed as His-tagged proteins. In addition, the Guanosine nucleotide Exchange Factor (GEF) Sos protein (residues 556-1049) was expressed as a His-tagged protein. In cells, the guanine nucleotide exchange factor Sos protein promotes activation of Ras proteins by stimulating an exchange of GDP for GTP. The inclusion of Sos to the Ras GTP binding domain inhibition assay may be considered as an alternative representation of physiological cellular conditions for evaluating the inhibitory activity of some of the tested small molecules.
(§5) For the assay, all purified small GTPases proteins were diluted in Buffer-I or Buffer-II to a final concentration of 10-30 μg/mL. 200 μL of each diluted protein was added to a nickel-coated 96-well plate and incubated overnight at 4° C. Then the protein solution was discarded and 200 μL of Buffer-I or Buffer-II was added to each well in the presence of 1% DMSO. Compounds to be tested were added to the protein-coated wells at final concentration of 20 μM, and incubated for 3 hours at room temperature with and without […] of Sos added to the final hour of the incubation. When performing IC50 measurements a serial dilution of all tested concentrations was added. Then Cy3-GTP or Cy5-GTP was added to each well to a final concentration of 100 nM. The labeled GTP was incubated for 45 minutes at room temperature. Following GTP incubation, wells were washed 3× in Buffer-I or Buffer-II and 200 μL of Buffer-I or Buffer-II was added to each well. Following washes, the amount of bound labeled-GTP was measured using a SpectraMax M3 (Molecular Devices).

[2] = test system: KRas Q61H mutant; design: species or system human; details: 20 μM
Method: as §1, §2, §3, §4, §5

[3] = test system: KRas wild type; design: species or system human; details: 20 μM; for KRas wild type: % inh.: without SOS; for KRas wild type % inh.: without SOS (Table 7A)
Method: as §1, §2, §3, §4, §5

[4] = target: T1, KRas G12D mutant (Homo sapiens, UniProt P01116, G12D); details: 20 μM
T1 construct: fused on or other part: His tag, used for capture on nickel-coated plates
Method: as §1, §2, §3, §4, §5

[5] = with SOS, read-out: KRas G-12D mutant + SOS: % inh.
[6] = without SOS, read-out: KRas G12D mutant: % inh.
[7] = with SOS (Table 7A), read-out: KRas G12D mutant + SOS: % inh.
[8] = without SOS (Table 7A), read-out: KRas G12D mutant: % inh.

| Structure (SMILES) | KRas G12C mutant + SOS: % inh. [1] | KRas G12C mutant: % inh. [1] | KRas Q61H mutant + SOS: % inh. ([2]; with SOS) | KRas Q61H mutant: % inh. ([2]; without SOS) | KRas wild type + SOS: % inh. ([3]; with SOS) | KRas wild type: % inh. [3] | inhibition at 20 µM [4, 5] [%] | inhibition at 20 µM [4, 6] [%] | KRas Q61H mutant + SOS: % inh. ([2]; with SOS (Table 7A)) | KRas Q61H mutant: % inh. ([2]; without SOS (Table 7A)) | KRas wild type + SOS: % inh. ([3]; with SOS (Table 7A)) | KRas wild type % inh. [3] | inhibition at 20 µM [4, 7] [%] | inhibition at 20 µM [4, 8] [%] |
| --- | --- | --- | --- | --- | --- | --- | --- | --- | --- | --- | --- | --- | --- | --- |
| COC1CCN(c2nc(-c3nccn3C)nc3sc(-c4ccccc4CO)c(-c4ccccc4)c23)C1.Cl (stereo not drawn) | D (76-100% inhibition) | A (1-25% inhibition) | D (76-100% inhibition) | B (26-50% inhibition) | D (76-100% inhibition) | B (26-50% inhibition) | 51 to 75 | 51 to 75 |  |  |  |  |  |  |
| COC1CCN(c2nc(-c3nccn3C)nc3sc(-c4ccc(N)nc4C)c(-c4ccccc4)c23)C1.Cl (stereo not drawn) | A (1-25% inhibition) | A (1-25% inhibition) | A (1-25% inhibition) | A (1-25% inhibition) | A (1-25% inhibition) | A (1-25% inhibition) | 1 to 25 | 1 to 25 |  |  |  |  |  |  |
| COC1CCN(c2nc(-c3nccn3C)nc3sc(-c4ccc(CO)cc4)c(-c4ccccc4)c23)C1.Cl (stereo not drawn) | D (76-100% inhibition) | 0 (0% inhibition) | D (76-100% inhibition) | 0 (0% inhibition) | D (76-100% inhibition) | 0 (0% inhibition) | 51 to 75 | 1 to 25 |  |  |  |  |  |  |
| COC1CCN(c2nc(-c3nccn3C)nc3sc(-c4ccncc4C)c(-c4ccccc4)c23)C1.Cl (stereo not drawn) | B (26-50% inhibition) | B (26-50% inhibition) | B (26-50% inhibition) | A (1-25% inhibition) | A (1-25% inhibition) | B (26-50% inhibition) | 26 to 50 | 26 to 50 |  |  |  |  |  |  |
| COC1CCN(c2nc(-c3nccn3C)nc3sc(-c4ccnc(N(C)C)c4)c(-c4ccccc4)c23)C1.Cl (stereo not drawn) | D (76-100% inhibition) | A (1-25% inhibition) | D (76-100% inhibition) | D (76-100% inhibition) | D (76-100% inhibition) | C (51-75% inhibition) | 51 to 75 | 51 to 75 |  |  |  |  |  |  |
| COC(=O)c1nc(C2NCCN2C)nc(O)c1O (stereo not drawn) | C (51-75% inhibition) | D (76-100% inhibition) | C (51-75% inhibition) | C (51-75% inhibition) | B (26-50% inhibition) | C (51-75% inhibition) | 26 to 50 | 51 to 75 |  |  |  |  |  |  |
| COc1nscc1-c1sc2nc(-c3nccn3C)nc(N3CCC(OC)C3)c2c1-c1ccccc1.Cl (stereo not drawn) | D (76-100% inhibition) | B (26-50% inhibition) | D (76-100% inhibition) | C (51-75% inhibition) | D (76-100% inhibition) | B (26-50% inhibition) | 51 to 75 | 26 to 50 |  |  |  |  |  |  |
| COCCn1cc(-c2sc3nc(-c4nccn4C)nc(N4CCC(OC)C4)c3c2-c2ccccc2)cn1.Cl (stereo not drawn) | D (76-100% inhibition) | D (76-100% inhibition) | C (51-75% inhibition) | B (26-50% inhibition) | C (51-75% inhibition) | D (76-100% inhibition) | 51 to 75 | 51 to 75 |  |  |  |  |  |  |
| COC1CCN(c2nc(-c3nccn3C)nc3sc(-c4cnc(C5CC5)o4)c(-c4ccccc4)c23)C1.Cl (stereo not drawn) | C (51-75% inhibition) | C (51-75% inhibition) | C (51-75% inhibition) | B (26-50% inhibition) | C (51-75% inhibition) | C (51-75% inhibition) | 51 to 75 | 51 to 75 |  |  |  |  |  |  |
| COc1ncccc1-c1sc2nc(-c3nccn3C)nc(N3CCC(OC)C3)c2c1-c1ccccc1.Cl (stereo not drawn) | C (51-75% inhibition) | C (51-75% inhibition) | C (51-75% inhibition) | C (51-75% inhibition) | C (51-75% inhibition) | C (51-75% inhibition) | 51 to 75 | 51 to 75 |  |  |  |  |  |  |
| COC1CCN(c2nc(-c3nccn3C)nc3sc(-c4cccnc4)c(-c4ccccc4)c23)C1.Cl (stereo not drawn) | D (76-100% inhibition) | D (76-100% inhibition) | C (51-75% inhibition) | B (26-50% inhibition) | C (51-75% inhibition) | C (51-75% inhibition) | 51 to 75 | 51 to 75 |  |  |  |  |  |  |
| COc1cc(-c2sc3nc(-c4nccn4C)nc(N4CCC(OC)C4)c3c2-c2ccccc2)ccn1.Cl (stereo not drawn) | D (76-100% inhibition) | C (51-75% inhibition) | C (51-75% inhibition) | C (51-75% inhibition) | C (51-75% inhibition) | C (51-75% inhibition) | 51 to 75 | 51 to 75 |  |  |  |  |  |  |
| CO[C@H]1CC[C@@H](Nc2nc(-c3nccn3C)nc3sc(-c4cccc5[nH]ncc45)c(-c4ccccc4)c23)C1 [drawing 889] |  |  |  |  |  |  |  |  | D (76-100% inhibition) | C (51-75% inhibition) | D (76-100% inhibition) | C (51-75% inhibition) | 51 to 75 | 51 to 75 |
| COc1cccc(-c2sc3nc(-c4nccn4C)nc(N[C@@H]4CC[C@H](OC)C4)c3c2C)c1F [drawing 894] |  |  |  |  |  |  |  |  | D (76-100% inhibition) | C (51-75% inhibition) | D (76-100% inhibition) | C (51-75% inhibition) | 51 to 75 | 51 to 75 |
| COc1cccc(-c2sc3nc(-c4nc(C)cn4C)nc(N[C@@H]4CC[C@H](OC)C4)c3c2C)c1F [drawing 896] |  |  |  |  |  |  |  |  | B (26-50% inhibition) | A (1-25% inhibition) | B (26-50% inhibition) | A (1-25% inhibition) | 26 to 50 | 1 to 25 |
| CO[C@H]1CC[C@@H](Nc2nc(-c3nc(C)cn3C)nc3sc(-c4cccc5[nH]ncc45)c(C)c23)C1 [drawing 897] |  |  |  |  |  |  |  |  | B (26-50% inhibition) | B (26-50% inhibition) | B (26-50% inhibition) | B (26-50% inhibition) | 26 to 50 | 26 to 50 |
